# According to paper PMC5571359, “Screening the Medicines for Malaria Venture Pathogen Box across Multiple Pathogens Reclassifies Starting Points for Open-Source Drug Discovery” (Antimicrobial Agents and Chemotherapy, 2017):
# Where two headings read alike, the source gives them in different places.
# Tests used:
# HepG2 = settings: cited from earlier work; for CC50 / HepG2 PBox CC20: ref PBox supporting information
# HEK293 cells = assay: HEK293 resazurin cell cytotoxicity assay; settings: Homo sapiens
# [1] = test system: Plasmodium falciparum 3D7 asexual blood stage; assay: microbe, parasite or virus in culture
# P. falciparum ABS = settings: cited from earlier work; for EC50: ChEMBL Data, P. falciparum, read-out: TCMDC (ref 93) EX50; for IC50: P. falciparum 3D7, ref PBox supporting information, read-out: Pf 3D7 Pbox IC50
# [2] = test system: T. b. brucei 427 bloodstream trypanosomes; assay: T. b. brucei resazurin viability assay; type: cell-based, Trypanosoma brucei brucei; settings: Trypanosoma brucei; read-out: T b.brucei Discovery Biology IC50
# [3] = test system: NF54-pfs16-LUC-GFP stage IV gametocytes; assay: Plasmodium falciparum late stage gametocyte (LSG) image-based assay; type: cell-based; settings: Plasmodium falciparum
# [4] = test system: T. cruzi C4 β-galactosidase reporter parasite in MRC 5SV2 host cells; settings: ref Pbox supporting information; read-out: T. cruzi Pbox IC50; cited from earlier work
# [5] = test system: T. cruzi intracellular amastigotes; assay: Intracellular anti-Trypanosoma cruzi image-based assay (amastigotes); type: cell-based; settings: Trypanosoma cruzi; for IC50: intracellular amastigotes
# [6] = read-out: HepG2 PBox CC50 µM, HepG2 cytotoxicity
# [7] = HEK293, read-out: HEK % Inhibition 20uM/IC50 Discovery Biology
# [8] = 3D7, read-out: Antiplasmodial IC50 (ABS), PBox compounds, P. falciparum 3D7
# [9] = HEK293, read-out: HEK % Inhibition 20uM/IC50 Discovery Biology (IA)
# [10] = ref Pbox supporting information
# [11] = read-out: HepG2 PBox CC50, HepG2
smiles,measurement,setting,value
Cc1cc(NCCc2ccccc2)nc(NC(=N)Nc2ccc(Cl)cc2)n1 [MMV021660],CC50,HepG2; [6],6.5 µM
same,inhibition at 20 µM,HEK293 cells; [7],100%
same,IC50,[1]; [8],0.16 µM
same,EC50,P. falciparum ABS; TCMDC set,0.23 µM
O=C(NCCc1ccccc1)c1cc(-c2cccnc2)cnc1NCC1CC1 [MMV026490],IC50,HEK293 cells; [9],> 20 µM
same,IC50,[2],6.02 µM
same,EC50,P. falciparum ABS,0.85 µM
same,IC50,P. falciparum ABS,1.29 µM
COc1cccc(-n2nnnc2S(=O)(=O)Cc2ccccc2)c1 [MMV676388],IC50,"[3]; NF54, read-out: Antiplasmodial IC50 (GAM / LSG), PBox compounds, stage IV gametocytes, single determination",2.99 µM
same,IC50,[1]; [8],4.93 µM
same,IC50,"[1]; 3D7, read-out: activity against P. falciparum (novel antiplasmodial actives of the tuberculosis set)",4 to 5 µM
Nc1ncc(Br)cc1-c1nc2cc(Cl)cnc2[nH]1 [MMV676358],IC50,HEK293 cells; [9],> 20 µM
same,IC50,P. falciparum ABS,1.5 µM
CS(=O)(=O)c1ccc(C(=O)N(CC2CCCO2)c2nc3ccccc3s2)cc1[N+](=O)[O-] (centres unmarked) [MMV688761],IC50,"[3]; NF54, read-out: Pf Stage IV GAMS Discovery Biology IC50 µM, stage IV gametocytes",0.9 µM
same,HepG2 PBox CC20 μMc,HepG2; [10],6.9 µM
same,inhibition at 20 µM,HEK293 cells; [7],42%
same,IC50,"[1]; 3D7, read-out: Pf 3D7 Discovery Biology IC50 µM, P. falciparum 3D7 asexual blood stage",4.08 µM
same,IC50,[2],3.49 µM
O=C([C@@H](c1ccc(Cl)cc1)c1cccnc1)N1CCN(c2ccc(C(F)(F)F)cc2)CC1 [MMV689244],HepG2 PBox CC20,HepG2; HepG2,19.0 µM
same,IC50,HEK293 cells; [7],> 20 µM
same,IC50,[4],0.0075 µM
same,Emax,"[5]; PBox kinetoplastid set compounds active against T. cruzi alone, read-out: Emax against T. cruzi (subefficacious effect)",< 100%
same,IC50,[5]; read-out: T cruzi Discovery Biology IC50,0.12 µM
COc1cccc(-n2nnnc2S(C)(=O)=O)c1 [MMV272144],IC50,"[3]; NF54, read-out: Pf Stage IV GAMS Discovery Biology IC50 µM, stage IV gametocytes, Discovery Biology",1.92 µM
same,CC50,HepG2; [6],1.7 µM
same,inhibition at 20 µM,HEK293 cells; [7],100%
same,IC50,[2],4.12 µM
CNc1cc(C)nc(C2CN(C(=O)c3n[nH]c4ccccc34)CCO2)c1 (centres unmarked) [MMV689709],IC50,HEK293 cells; [7],> 20 µM
same,IC50,[4],3.89 µM
same,IC50,"[5]; PBox compounds, 48 h exposure, read-out: IC50 T. cruzi (Discovery Biology)",3.32 µM
COc1cc(C(F)(F)F)nc2ccc(C)c(N)c12 [MMV047015],CC50,HepG2; [6],> 100 µM
CCCCOC(=O)Nc1cc2nc(C3CCCCC3)[nH]c2cc1N1CCCC1 [MMV687730],CC50,HepG2; [6],26.8 µM
N#Cc1nc(-c2ccccc2F)oc1NCCc1ccccc1 [MMV676384],CC50,HepG2; [6],> 100 µM
COC(=O)C1=C(C)NC(C)=C(C(=O)OC(C)C)C1c1cccc2nonc12 (centres unmarked) [MMV001493],HepG2 PBox CC20 μMc,HepG2,66 µM
CCc1nc2ccc(Cl)cn2c1C(=O)NCc1ccc(N2CCC(c3ccc(OC(F)(F)F)cc3)CC2)cc1 [MMV687696],CC50,HepG2; [6],> 100 µM
Cn1ccnc1CNCCS(=O)(=O)c1cccc(Nc2ccc(-c3cccc(F)c3)cn2)c1 [MMV688466],CC50,HepG2; [11],46.1 µM
Nc1cccnc1Nc1ccc(Cl)cc1 [MMV676524],CC50,HepG2; [6],9 µM
CNc1snc(C)c1C(=O)NCCOc1ccc(OC)cc1 [MMV688554],CC50,HepG2; [11],> 100 µM
CS(=O)(=O)N1CCC(Cn2nc(Cc3cccc4ccccc34)c3c(N)ncnc32)CC1 [MMV676050],HepG2 PBox CC20,HepG2; HepG2,53 µM
same,inhibition at 20 µM,HEK293 cells; [7],77%
CCC(C)NC(=O)c1ccc(NC(=O)C2(c3ccccc3)CCCC2)cc1 (centres unmarked) [MMV146306],CC50,HepG2; [6],> 100 µM
Nc1ncc(-c2ccc(C(F)(F)F)nc2)cc1-c1ccc(C(F)(F)F)nc1 [MMV668727],HepG2 PBox CC20 μMc,HepG2; [10],>80 µM
CC(C)(C)C(=O)N(CCCCCCN1C[C@H](O)[C@@H](O)[C@H](O)[C@H]1CO)C1CCCCCC1 [MMV688543],CC50,HepG2; [11],> 50 µM
O=C(NC1CCCCC1)N1CCN(Cc2ccc3c(c2)OCO3)CC1 [MMV676444],CC50,HepG2; [6],> 100 µM
O=C(c1ccc(F)cc1)N(CCNc1ccccc1)c1ccccc1 [MMV676204],HepG2 PBox CC20 μMc,HepG2; [10],18.5 µM
CCCCc1ccc(C(=O)Nc2nccc3ccccc23)nc1 [MMV687254],CC50,HepG2; [6],73.8 µM
Nc1ncnc2c1c(Cc1cccc3ccccc13)nn2CC1CCNCC1 [MMV676182],HepG2 PBox CC20,HepG2; HepG2,>80 µM
